These are literature values, as cited in article PMC6010143, “Synthesis of new pyridothienopyrimidinone derivatives as Pim-1 inhibitors” (Journal of Enzyme Inhibition and Medicinal Chemistry, 2017).

As a reminder, the pIC50 is −log10 of the IC50, conventionally taken in molar units. Usually pKi stands for the negative decadic logarithm of the Ki, by convention in mol/L.

pIC50, pKi: −log10 of the molar value. Where two headings read alike, the source gives them in different places.

Common to all, as to settings: cited from earlier work
The subject of one series is pim-2.
The test system of another series is pim-1.
For another series, the target named is pim-3.

Regarding `O=C(O)c1ccc2c(c1)nc(Nc1cccc(Cl)c1)c1ccncc12` [CX-4595], the pIC50 in the series with pim-2 (Figure 1) was 6.73; in the series on pim-1 (Figure 1), 7.32.
As for `CN(C)Cc1nc2c(sc3ccc(-c4ccc(O)cc4)cc32)c(=O)[nH]1` [VI], the values for the pKi on pim-2 (Figure 3), on pim-1 (Figure 3) and at pim-3 (Figure 3) were 8.52, 8.70 and 9.30, respectively.
For `CC(C)(O)[C@H]1CC[C@H](Nc2ccc3ncc(-c4cccc(C(F)(F)F)c4)n3n2)CC1` [SGI-9481], the pKi at pim-2 (Figure 1) is 6.62; at pim-1 (Figure 1) it was 8.30; at pim-3 (Figure 1), 7.38.
With `O=c1[nH]c(CNc2cccc(O)c2)nc2c1sc1ccc(Br)cc12` [VII], the pKi is 7.22 at pim-2 (Figure 3), 9.10 at pim-1 (Figure 3) and 8.40 on pim-3 (Figure 3).
